Laboratory results: patent US20220155322A1, “USE OF NATRIURETIC PEPTIDES TO ASSESS AND TREAT ACUTE KIDNEY INJURY” (Mayo Foundation for Medical Education and Research, priority 2019, published 2022)
Positions of bridges follow the written chain, without caps; N, C: chain ends. Residues, ends and D or L forms follow the SMILES beside them.

Test system: human primary aortic vascular smooth muscle cells (HASMC)
Test: Intracellular calcium under ANGII stimulation (Fura-2)
Format: cell-based
Procedure: Measurements of Intracellular Calcium in Vascular Smooth Muscle Cells: HASMC (ScienCell Research Laboratories; Carlsbad, Calif.) were cultured and maintained as instructed by the manufacturer. Cells at passage 4 or 5 were used for experiments. Calcium imaging was performed as described elsewhere (Chai et al., Cardiovasc Res, 100:151-159, 2013). Briefly, cells were seeded on a 25 mm round cover glass (Fisher Scientific; Pittsburgh, Pa.) at a density of 5×10^4 cells per slide. The slides had been pretreated with 0.5 N NaOH for 8 hours, rinsed with water, and sterilized before use. After overnight culturing, the slides with cells were assembled in a MS-02 Chamber (ALA Scientific Instrument; Farmingdale, N.Y.) and loaded with 3 μM fura-2 AM (Invitrogen; Carlsbad, Calif.) for 30 minutes in a 37° C. incubator. The chamber was then placed on the stage of an inverted Olympus IX71 microscope (Olympus America Inc.; Waltham, Mass.). The cells were maintained in 1 mL HASMC medium and treated with or without ANP, BNP, or CRRL269 at concentration of 10^−9 or 10^−7 M for 5 minutes before perfused with 5 mL medium containing ANGII (10^−8 or 10^−7 M). Intracellular Ca2^+ fluorescence signals were measured as a ratio of fluorescence intensities at 510 nm from excitations of 340/380 nm, using a Hamamatsu ORCA-R2 CCD camera with a Sutter LB-LS/17 light source. Baseline fluorescence was recorded after 5 minutes of treatment, and fluorescence images were acquired continuously during the ANGII perfusion. Background fluorescence was subtracted and the calcium signal (F) was normalized to baseline fluorescence (FO) and expressed as a ratio (F/FO) using MetaFluor software (Olympus America Inc.).

CC[C@H](C)[C@@H]1NC(=O)[C@H](CCCNC(=N)N)NC(=O)[C@H](CC(=O)O)NC(=O)[C@H](CCSC)NC(=O)[C@H](CCCCN)NC(=O)[C@H](CCCNC(=N)N)NC(=O)CNC(=O)[C@H](Cc2ccccc2)NC(=O)[C@@H](NC(=O)[C@H](CO)NC(=O)[C@H](CO)NC(=O)[C@H](CCCNC(=N)N)NC(=O)[C@H](CCCNC(=N)N)NC(=O)[C@H](CC(C)C)NC(=O)[C@H](CO)NC(=O)[C@H](CCCNC(=N)N)NC(=O)[C@@H]2CCCN2C(=O)[C@H](C)NC(=O)[C@@H](N)[C@@H](C)O)CSSC[C@@H](C(=O)N[C@@H](CC(N)=O)C(=O)N[C@@H](CO)C(=O)N[C@@H](Cc2ccccc2)C(=O)N[C@@H](CCCNC(=N)N)C(=O)N[C@@H](Cc2ccc(O)cc2)C(=O)O)NC(=O)CNC(=O)[C@H](CC(C)C)NC(=O)CNC(=O)[C@H](CO)NC(=O)[C@H](CO)NC(=O)[C@H](CO)NC(=O)[C@H](CO)NC1=O [CRRL269] (H-TAPRSLRRSSCFGRKMDRISSSSGLGCNSFRY-OH; disulfide 11-27)
Ca2^+ suppression relative to ANP and BNP (HASMC, pretreatment at 10^−9 or 10^−7 M, ANGII stimulation): less Ca2^+ suppression than ANP and BNP
Ca2^+ enhancement by ANGII in HASMC (pretreatment at 10^−9 or 10^−7 M for 5 minutes, ANGII 10^−8 or 10^−7 M): suppressed
